Laboratory results taken from ChEMBL document CHEMBL4673260, “Pyridine alkaloids with activity in the central nervous system” (Bioorg Med Chem, 2020).

Key:
[1] = target: T1, Muscarinic acetylcholine receptor M1 (Rattus norvegicus) (UniProt P08482); details: filed as antagonist, time 40.0 min
T1 sequence (whole entry): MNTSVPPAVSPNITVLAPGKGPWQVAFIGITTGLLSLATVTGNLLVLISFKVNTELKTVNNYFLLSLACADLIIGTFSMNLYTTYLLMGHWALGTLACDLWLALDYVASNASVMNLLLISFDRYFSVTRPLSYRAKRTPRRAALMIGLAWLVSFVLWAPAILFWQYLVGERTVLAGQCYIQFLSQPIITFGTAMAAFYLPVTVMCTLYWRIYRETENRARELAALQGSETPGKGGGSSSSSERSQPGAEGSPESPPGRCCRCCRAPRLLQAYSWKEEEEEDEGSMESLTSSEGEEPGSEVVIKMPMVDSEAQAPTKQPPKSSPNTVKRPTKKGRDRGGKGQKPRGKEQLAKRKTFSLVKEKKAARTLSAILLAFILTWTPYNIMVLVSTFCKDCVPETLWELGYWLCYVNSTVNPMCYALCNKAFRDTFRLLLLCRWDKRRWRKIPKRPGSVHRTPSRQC

[2] = target: T1, Muscarinic acetylcholine receptor M1 (Rattus norvegicus); details: filed as antagonist, time 60.0 min
[3] = target: Neuronal acetylcholine receptor; alpha4/beta2 (Rattus norvegicus, UniProt P09483+P12390); assay: Displacement of [3H]-cytisine from rat brain membrane alpha4beta2 nAChR; format: cell membranes
[4] = target: T2, Neuronal acetylcholine receptor; alpha4/beta2 (Homo sapiens, UniProt P17787+P43681); assay: Agonist activity at human alpha4beta2 nAChR expressed in Xenopus oocytes relative to control; format: cell-based; details: Oocyte, filed as agonist
[5] = target: T2, Neuronal acetylcholine receptor; alpha4/beta2; assay: Agonist activity at human alpha4beta2 nAChR expressed in Xenopus oocytes; format: cell-based, Oocyte
[6] = Toxicity in iv dosed Swiss-Webster mouse by up-and-down method; format: organism-based; details: in vivo
[7] = target: T3, Neuronal acetylcholine receptor subunit alpha-7 (Rattus norvegicus, UniProt Q05941); assay: Displacement of 125I-alpha-bungarotoxin from rat brain alpha7 nAChR by radioligand binding assay
[8] = target: T2, Neuronal acetylcholine receptor; alpha4/beta2
Description: Displacement of [3H]cytisine from human alpha4beta2 nAChR by Cheng-Prusoff equation analysis

[9] = target: T2, Neuronal acetylcholine receptor; alpha4/beta2; remark: listed apart in the source
Description: Displacement of [3H]cytisine from human alpha4beta2 nAChR by radioligand competition analysis

Acetylcholinesterase [10] = target: T4, Acetylcholinesterase (Homo sapiens, UniProt P22303); assay: Inhibition of acetylcholinesterase (unknown origin) using acetylthiocholine iodide as substrate incubated for 30 mins by Ellman's coupled enzyme assay
Acetylcholinesterase [11] = target: T4, Acetylcholinesterase
[12] = Induction of neurotoxicity in cray fish measured after 24 hrs; details: procambarus clarkii
[13] = Displacement of [3H]-(-)-nicotine from rat cerebral cortex nAChR incubated for 60 mins by liquid scintillation spectrometry
[14] = target: Muscarinic acetylcholine receptor M3 (Rattus norvegicus, UniProt P08483); assay: Inhibition of [3H]-methyl-quinuclidinyl benzilate binding to rat salivary gland muscarinic M3 receptor by radioligand binding assay
[15] = target: T5, Muscarinic acetylcholine receptor M1 (Rattus norvegicus, UniProt P08482); assay: Inhibition of [3H]-methyl-quinuclidinyl benzilate binding to rat brain muscarinic M1 receptor by radioligand binding assay
T5 sequence (P08482 whole entry): T1 sequence (whole entry)

[16] = target: T6, Muscarinic acetylcholine receptor M2 (Rattus norvegicus, UniProt P10980); assay: Inhibition of [3H]-methyl-quinuclidinyl benzilate binding to rat heart muscarinic M2 receptor by radioligand binding assay
T6 sequence (P10980 whole entry): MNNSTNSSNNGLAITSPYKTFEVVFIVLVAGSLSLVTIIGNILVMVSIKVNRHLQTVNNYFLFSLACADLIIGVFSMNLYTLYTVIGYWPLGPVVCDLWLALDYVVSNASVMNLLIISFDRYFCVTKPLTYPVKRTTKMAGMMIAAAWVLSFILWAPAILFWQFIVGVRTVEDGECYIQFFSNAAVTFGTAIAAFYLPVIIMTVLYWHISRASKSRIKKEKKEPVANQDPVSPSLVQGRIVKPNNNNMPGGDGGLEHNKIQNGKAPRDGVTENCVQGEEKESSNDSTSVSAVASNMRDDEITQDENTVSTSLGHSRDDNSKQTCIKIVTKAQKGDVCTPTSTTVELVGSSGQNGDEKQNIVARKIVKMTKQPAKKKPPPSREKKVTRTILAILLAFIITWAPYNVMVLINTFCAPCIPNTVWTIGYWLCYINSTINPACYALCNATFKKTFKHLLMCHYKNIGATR

[17] = Neurotoxicity in ip dosed mouse assessed as mouse death; format: toxicity, organism-based; details: in vivo
[18] = Neurotoxicity in ip dosed mouse assessed as induction of epileptic convulsion; format: toxicity, organism-based; details: in vivo
[19] = Neurotoxicity in ip dosed mouse assessed as induction of hindlimb tonic extension; format: toxicity, organism-based; details: in vivo
Torpedo = assay: Agonist activity at Torpedo alpha1beta1deltagamma nACHR; details: filed as agonist
[20] = target: Neuronal acetylcholine receptor; alpha3/beta4 (Homo sapiens) (UniProt P30926+P32297); assay: Agonist activity at human alpha3beta4 nAChR expressed in mouse/rat hybrid F11 cells assessed as increase in rubidium-86 efflux; format: cell-based; details: filed as agonist
[21] = target: T7, Neuronal acetylcholine receptor; alpha4/beta2 (Rattus norvegicus) (UniProt P09483+P12390); assay: Agonist activity at rat alpha4beta2 expressed in Xenopus oocytes assessed as peak activation at 100 uM relative to control; format: cell-based; details: Oocyte, filed as agonist
Rattus norvegicus = species on record: Rattus norvegicus; assay: Agonist activity at nAChR in rat striatal synaptosomes assessed as [3H]dopamine release relative to tetramethylammonium; format: subcellular; details: Striatum, filed as agonist
[22] = target: T7, Neuronal acetylcholine receptor; alpha4/beta2 (Rattus norvegicus); assay: Agonist activity at alpha4beta2 nAChR in rat thalamic synaptosomes assessed as 86Rb efflux relative to tetramethylammonium; format: subcellular; details: Thalamus, filed as agonist
[23] = target: T2, Neuronal acetylcholine receptor; alpha4/beta2; assay: Agonist activity at human brain alpha4beta2 nAChR expressed in CHO cells assessed as maximal receptor response by patch clamp electrophysiological assay relative to control; format: cell-based; details: filed as agonist
[24] = target: Neuronal acetylcholine receptor subunit alpha-7 (Homo sapiens, UniProt P36544); details: filed as agonist
Description: Agonist activity at human alpha7 nAChR (unknown origin)

Mus musculus = species on record: Mus musculus; assay: animal or person
Description: Antinociceptive activity in naloxone treated mouse assessed as induction of Straub-tail response

[25] = target: T3, Neuronal acetylcholine receptor subunit alpha-7
Description: Displacement of [3H]MLA from rat alpha7 nAChR by liquid scintillation counting

T4 sequence (P22303 whole entry): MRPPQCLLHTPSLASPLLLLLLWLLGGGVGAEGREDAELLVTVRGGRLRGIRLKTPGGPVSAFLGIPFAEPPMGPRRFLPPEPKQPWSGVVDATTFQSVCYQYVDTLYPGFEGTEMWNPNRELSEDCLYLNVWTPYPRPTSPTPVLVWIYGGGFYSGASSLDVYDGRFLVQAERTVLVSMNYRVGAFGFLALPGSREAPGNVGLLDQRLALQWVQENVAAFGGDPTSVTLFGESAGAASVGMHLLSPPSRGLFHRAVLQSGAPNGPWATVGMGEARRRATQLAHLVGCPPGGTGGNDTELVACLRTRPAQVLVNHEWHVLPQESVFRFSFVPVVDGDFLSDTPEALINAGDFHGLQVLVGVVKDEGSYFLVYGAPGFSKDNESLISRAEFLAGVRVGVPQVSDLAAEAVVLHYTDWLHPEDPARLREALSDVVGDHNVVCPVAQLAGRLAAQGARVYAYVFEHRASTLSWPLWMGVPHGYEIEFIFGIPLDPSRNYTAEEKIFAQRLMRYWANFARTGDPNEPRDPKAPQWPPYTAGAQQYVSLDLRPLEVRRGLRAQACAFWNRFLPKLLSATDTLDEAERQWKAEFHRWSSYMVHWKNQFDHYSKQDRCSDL
Muscarinic acetylcholine receptor M3, sequence (P08483 whole entry): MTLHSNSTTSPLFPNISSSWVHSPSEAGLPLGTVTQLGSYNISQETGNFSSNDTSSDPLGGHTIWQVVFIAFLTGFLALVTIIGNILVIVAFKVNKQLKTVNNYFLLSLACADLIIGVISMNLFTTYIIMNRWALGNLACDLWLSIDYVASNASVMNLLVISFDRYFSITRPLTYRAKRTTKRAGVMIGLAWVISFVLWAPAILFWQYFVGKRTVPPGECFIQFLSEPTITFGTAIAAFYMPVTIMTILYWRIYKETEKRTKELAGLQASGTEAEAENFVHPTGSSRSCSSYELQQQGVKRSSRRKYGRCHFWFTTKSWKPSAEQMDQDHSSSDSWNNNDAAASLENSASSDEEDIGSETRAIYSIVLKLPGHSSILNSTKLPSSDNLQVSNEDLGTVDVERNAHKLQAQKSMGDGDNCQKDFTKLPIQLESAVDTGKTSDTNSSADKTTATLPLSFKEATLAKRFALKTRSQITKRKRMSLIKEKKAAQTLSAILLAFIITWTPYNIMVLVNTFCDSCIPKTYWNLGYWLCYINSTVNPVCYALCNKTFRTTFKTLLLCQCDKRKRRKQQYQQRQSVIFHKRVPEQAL
T2 sequence (P17787 whole entry): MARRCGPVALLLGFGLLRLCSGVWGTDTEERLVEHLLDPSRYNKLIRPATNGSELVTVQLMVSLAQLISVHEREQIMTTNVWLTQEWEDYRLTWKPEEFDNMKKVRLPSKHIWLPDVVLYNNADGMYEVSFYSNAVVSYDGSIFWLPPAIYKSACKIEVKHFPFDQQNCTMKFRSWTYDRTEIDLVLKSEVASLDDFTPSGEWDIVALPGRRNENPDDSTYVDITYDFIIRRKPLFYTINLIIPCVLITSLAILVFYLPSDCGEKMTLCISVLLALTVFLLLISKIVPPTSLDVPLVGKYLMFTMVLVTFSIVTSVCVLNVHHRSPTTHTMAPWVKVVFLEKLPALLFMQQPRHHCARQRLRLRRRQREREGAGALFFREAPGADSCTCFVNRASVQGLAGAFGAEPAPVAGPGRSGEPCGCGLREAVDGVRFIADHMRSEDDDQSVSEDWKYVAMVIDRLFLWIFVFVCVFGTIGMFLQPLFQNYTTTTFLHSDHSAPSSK
T2 sequence (P43681 whole entry): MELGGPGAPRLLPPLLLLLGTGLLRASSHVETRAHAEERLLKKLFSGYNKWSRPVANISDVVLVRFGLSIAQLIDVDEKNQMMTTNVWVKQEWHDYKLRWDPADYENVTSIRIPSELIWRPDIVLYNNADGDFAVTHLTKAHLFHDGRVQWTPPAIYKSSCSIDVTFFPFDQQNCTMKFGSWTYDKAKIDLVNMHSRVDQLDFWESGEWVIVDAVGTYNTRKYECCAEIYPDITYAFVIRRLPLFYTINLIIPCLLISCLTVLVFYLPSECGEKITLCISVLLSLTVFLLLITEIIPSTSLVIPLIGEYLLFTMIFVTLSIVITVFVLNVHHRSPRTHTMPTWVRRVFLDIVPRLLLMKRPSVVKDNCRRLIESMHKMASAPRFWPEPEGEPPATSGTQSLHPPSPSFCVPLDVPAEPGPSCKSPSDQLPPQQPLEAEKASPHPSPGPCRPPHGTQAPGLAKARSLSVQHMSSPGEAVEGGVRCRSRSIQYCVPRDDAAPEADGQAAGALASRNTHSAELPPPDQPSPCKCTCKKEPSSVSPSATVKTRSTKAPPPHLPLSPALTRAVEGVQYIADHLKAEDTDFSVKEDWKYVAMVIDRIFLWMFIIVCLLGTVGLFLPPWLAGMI
Neuronal acetylcholine receptor; alpha4/beta2 (Rattus norvegicus, UniProt P09483+P12390), sequence (P09483 whole entry): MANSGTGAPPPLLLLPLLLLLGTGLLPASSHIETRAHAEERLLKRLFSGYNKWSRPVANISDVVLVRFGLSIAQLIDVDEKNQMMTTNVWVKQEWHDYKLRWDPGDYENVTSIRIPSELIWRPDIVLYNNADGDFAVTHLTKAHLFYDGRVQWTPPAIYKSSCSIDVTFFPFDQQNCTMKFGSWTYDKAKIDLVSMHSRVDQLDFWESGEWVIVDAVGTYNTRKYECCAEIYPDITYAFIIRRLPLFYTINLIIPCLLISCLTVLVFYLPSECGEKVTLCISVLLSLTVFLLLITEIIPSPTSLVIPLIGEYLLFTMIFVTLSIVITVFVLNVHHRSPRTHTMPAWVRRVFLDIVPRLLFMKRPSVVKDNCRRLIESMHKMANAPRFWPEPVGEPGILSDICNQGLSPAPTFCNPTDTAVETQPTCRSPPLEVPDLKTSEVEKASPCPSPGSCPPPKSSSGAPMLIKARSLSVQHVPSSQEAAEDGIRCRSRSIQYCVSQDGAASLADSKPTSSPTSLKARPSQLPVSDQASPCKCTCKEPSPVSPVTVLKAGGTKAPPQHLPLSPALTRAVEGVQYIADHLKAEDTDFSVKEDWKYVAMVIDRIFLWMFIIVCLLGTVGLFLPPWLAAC
Neuronal acetylcholine receptor; alpha4/beta2 (Rattus norvegicus, UniProt P09483+P12390), sequence (P12390 whole entry): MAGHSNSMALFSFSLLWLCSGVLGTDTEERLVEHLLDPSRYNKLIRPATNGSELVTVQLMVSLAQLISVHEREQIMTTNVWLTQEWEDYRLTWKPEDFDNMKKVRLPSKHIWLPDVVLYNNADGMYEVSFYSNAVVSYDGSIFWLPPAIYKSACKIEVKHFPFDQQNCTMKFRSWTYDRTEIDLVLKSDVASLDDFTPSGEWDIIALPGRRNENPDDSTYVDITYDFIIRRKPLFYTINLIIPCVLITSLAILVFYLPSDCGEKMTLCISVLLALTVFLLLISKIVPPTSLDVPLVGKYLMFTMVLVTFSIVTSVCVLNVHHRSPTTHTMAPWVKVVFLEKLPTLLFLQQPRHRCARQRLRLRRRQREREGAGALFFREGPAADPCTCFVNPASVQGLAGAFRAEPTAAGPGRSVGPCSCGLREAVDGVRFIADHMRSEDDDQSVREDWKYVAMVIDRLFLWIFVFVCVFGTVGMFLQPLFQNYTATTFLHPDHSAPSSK
T3 sequence (Q05941 whole entry): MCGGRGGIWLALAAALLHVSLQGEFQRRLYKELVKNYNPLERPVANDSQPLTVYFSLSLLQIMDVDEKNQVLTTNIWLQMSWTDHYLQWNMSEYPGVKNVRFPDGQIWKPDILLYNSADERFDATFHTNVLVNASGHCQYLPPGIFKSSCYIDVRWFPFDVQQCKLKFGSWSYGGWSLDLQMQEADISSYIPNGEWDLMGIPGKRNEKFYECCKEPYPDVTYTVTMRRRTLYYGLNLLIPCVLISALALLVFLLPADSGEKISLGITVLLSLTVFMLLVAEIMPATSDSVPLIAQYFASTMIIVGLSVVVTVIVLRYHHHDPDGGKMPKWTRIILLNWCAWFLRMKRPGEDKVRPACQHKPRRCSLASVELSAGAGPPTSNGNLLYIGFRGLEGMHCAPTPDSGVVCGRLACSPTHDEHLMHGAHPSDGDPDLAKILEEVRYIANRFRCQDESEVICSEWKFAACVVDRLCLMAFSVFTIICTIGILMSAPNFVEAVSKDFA
Neuronal acetylcholine receptor subunit alpha-7 (Homo sapiens, UniProt P36544), sequence (P36544 whole entry): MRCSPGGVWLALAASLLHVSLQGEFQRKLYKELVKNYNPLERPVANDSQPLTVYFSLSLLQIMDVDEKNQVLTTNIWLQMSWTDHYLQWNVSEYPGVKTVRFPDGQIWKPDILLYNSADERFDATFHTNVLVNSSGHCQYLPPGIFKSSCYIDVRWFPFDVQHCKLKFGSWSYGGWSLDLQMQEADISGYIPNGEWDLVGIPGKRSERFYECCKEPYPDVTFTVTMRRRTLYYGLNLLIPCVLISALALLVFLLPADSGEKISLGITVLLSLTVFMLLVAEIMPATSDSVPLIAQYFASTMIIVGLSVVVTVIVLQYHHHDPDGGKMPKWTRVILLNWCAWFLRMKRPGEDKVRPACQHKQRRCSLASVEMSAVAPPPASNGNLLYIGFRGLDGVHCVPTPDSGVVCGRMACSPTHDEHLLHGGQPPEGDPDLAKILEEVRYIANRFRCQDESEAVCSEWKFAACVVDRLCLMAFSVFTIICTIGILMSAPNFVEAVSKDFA

C[N+](C)(C)CCOC(N)=O
Kapp [1]: 0.0049 µM
Kapp [2]: 22 µM

C1=C[C@@H](c2cccnc2)NCC1
Ki [3]: 0.108 µM
Imax [4]: 78.7%
EC50 [5]: 1.01 µM

C1=C[C@H](c2cccnc2)NCC1
Ki [3]: 0.136 µM
Imax [4]: 102%
EC50 [5]: 0.31 µM

c1cncc([C@H]2CCCCN2)c1
LD50 [6]: 11 mg/kg
Ki [7]: 3.7 µM

CN1CC2c3cccc(=O)n3CC3C2[C@H](CO)CC31 (stereo partly specified)
Ki [8]: 0.0013 µM
IC50 [9]: 0.0039 µM

C[C@@H]1CC2N(C)CC3c4cccc(=O)n4CC2(O)C31 (stereo partly specified)
Ki [8]: 0.088 µM
IC50 [9]: 0.26 µM

C[C@@H]1CC[C@H]2[C@H](C(=O)c3c4c(cn(O)c3=O)[C@@]3(O)CC[C@H](O)[C@H](O4)[C@@H]3O)[C@H](C)C=C[C@@H]2C1
IC50 (Acetylcholinesterase [10]): 47 µM

Clc1ccc(C2CC3CCC2N3)cn1 (stereo in doubt; (-))
Kapp [1]: 1.4 µM
Kapp [2]: 16 µM

CCCCCCCCCCCCCCCCc1ccc(C(=O)[O-])c[n+]1C
IC50 (Acetylcholinesterase [11]): 2800 µM

CCCCCCCCCCCCCCCCc1c(C(=O)[O-])ccc[n+]1C
IC50 (Acetylcholinesterase [11]): 2100 µM

c1ccc(-c2cccnc2)nc1 [[2,3'']Bipyridinyl]
LD50 [12]: 94 µg

C[C@@H]1CC2NCC3c4cccc(=O)n4CC2C31 (stereo partly specified)
Ki [8]: 0.0016 µM
IC50 [9]: 0.0048 µM

Clc1ccc(C2CC3CCC2N3)cn1 (stereo in doubt; (-)) [EPIBATIDINE]
IC50 [13]: 0.00024 µM

CO[C@]1(c2cn(O)c(=O)c(C(=O)[C@H]3[C@@H]4CC[C@@H](C)C[C@H]4C=C[C@H]3C)c2O)CC[C@@H](O)[C@H]2O[C@H]21
IC50 (Acetylcholinesterase [10]): 0.81 µM

c1cc2c[n+](c1)CCCCCCCCCCCCCCc1ccc[n+](c1)CCCCCCCCCCCCC2
IC50 [14]: 338 µM
IC50 [15]: 279 µM
IC50 [16]: 175 µM

c1cc2c[n+](c1)CCCCCCCCCCCCCCc1ccc[n+](c1)CCCCCCCCCCCC2
IC50 [14]: 282 µM
IC50 [15]: 233 µM
IC50 [16]: 79 µM

O=C(O)C[C@@H]1[C@@H](C(=O)O)NC[C@@H]1c1ccc(=O)[nH]c1
LD [17]: 10 mg/kg
LD [18]: 10 mg/kg
LD [19]: 10 mg/kg

c1cc2c[n+](c1)CCCCCCCCCCCCCc1ccc[n+](c1)CCCCCCCCCCCCC2
IC50 [14]: 193 µM
IC50 [15]: 162 µM
IC50 [16]: 72.3 µM

CN1CCC[C@H]1c1cccnc1
ED50 (Torpedo): 250 µM
ED50 [20]: 14 µM
Activity [21]: 333%
Emax (Rattus norvegicus): 113%
Emax [22]: 87%
Imax [23]: 159%
ED50 [24]: 40 µM

O=C(O)C[C@@H]1[C@@H](C(=O)O)NC[C@@H]1c1ccc(=O)[nH]c1C(=O)O
LD [17]: 8 mg/kg
LD [18]: 8 mg/kg
LD [19]: 8 mg/kg

c1cc2c[n+](c1)CCCCCCCCCCCCCc1ccc[n+](c1)CCCCCCCCCCCC2
IC50 [14]: 149 µM
IC50 [15]: 111 µM
IC50 [16]: 42.3 µM

CC(=O)OCC[N+](C)(C)C
Activity [21]: 242%

CN1CC[C@]23c4c5ccc(O)c4O[C@H]2[C@@H](O)C=C[C@H]3[C@H]1C5 [MORPHINE]
ED50 (Mus musculus): 10 mg/kg

O=c1cccc2n1C[C@@H]1CNC[C@H]2C1 [CYTISINICLINE]
Ki [8]: 0.00028 µM
Ki [25]: 1.7 µM

c1cncc(-c2cc(-c3cccnc3-c3cccnc3)ccn2)c1
LD50 [12]: > 240 µg

CCCCCCCCCCCCCCCCc1cc[n+](C)cc1C(=O)[O-]
IC50 (Acetylcholinesterase [11]): 2600 µM

Cc1cc([C@@H]2CCCN2C)on1
Emax (Rattus norvegicus): 91%

c1cc2c[n+](c1)CCCCCCCCCCCCc1ccc[n+](c1)CCCCCCCCCCCC2
IC50 [14]: 98.8 µM
IC50 [15]: 94.6 µM
IC50 [16]: 36.2 µM

C[C@@H]1CC[C@H]2[C@H](C(=O)c3c(O)c([C@@]4(O)CC[C@@H](O)[C@H]5O[C@H]54)cn(O)c3=O)[C@H](C)C=C[C@@H]2C1
IC50 (Acetylcholinesterase [10]): 39 µM

c1cc2c[n+](c1)CCCCCCCCCCCCCCc1ccc[n+](c1)CCCCCCCCCCCCCC2
IC50 [14]: 612 µM
IC50 [15]: 470 µM
IC50 [16]: 194 µM

O=C(O)C[C@@H]1[C@@H](C(=O)O)NC[C@@H]1c1ccc(C(=O)O)[nH]c1=O
LD [17]: 7 mg/kg
LD [18]: 7 mg/kg
LD [19]: 7 mg/kg
